Experimental data reported in PubChem BioAssay AID248 (DTP/NCI, 2004).
Values joined by “and” are separate entries in the source; they are usually repeats but may differ in a detail not shown here. Equal values may be shown once. Inconclusive results and toxic doses are left out. Rule as the data show it: active = T/C of 150% or more; inactive = T/C below 125%.

System: L1210 leukemia ip in BDF1 mice, survival T/C
Assay: NCI In Vivo Anticancer Drug Screen. Data for tumor model L1210 Leukemia (intraperitoneal) in B6D2F1 (BDF1) mice
Details: endpoint: mean survival time, higher = longer survival
Procedure, shortened: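 Transplanted-tumor mice were given test agent; controls received vehicle only. Survival readings from the two groups were divided (treated over control).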

[1] = dose: 100.0 mg/kg/injection, schedule: Q04DX003 (ip), vehicle: saline with Tween-80
[2] = dose: 200.0 mg/kg/injection, schedule: Q04DX003 (ip), vehicle: saline with Tween-80
[3] = dose: 400.0 mg/kg/injection, schedule: Q04DX003 (ip), vehicle: saline with Tween-80
[4] = dose: 100.0 mg/kg/injection, schedule: Q01DX001 (ip), vehicle: saline
[5] = dose: 200.0 mg/kg/injection, schedule: Q01DX001 (ip), vehicle: saline
[6] = dose: 400.0 mg/kg/injection, schedule: Q01DX001 (ip), vehicle: saline
[7] = dose: 100.0 mg/kg/injection, schedule: Q04DX002 (ip), vehicle: Klucel (hydroxypropylcellulose) (HPC)
[8] = dose: 200.0 mg/kg/injection, schedule: Q04DX002 (ip), vehicle: Klucel (hydroxypropylcellulose) (HPC)
[9] = dose: 400.0 mg/kg/injection, schedule: Q04DX002 (ip), vehicle: Klucel (hydroxypropylcellulose) (HPC)
[10] = dose: 50.0 mg/kg/injection, schedule: Q04DX003 (ip), vehicle: Klucel (hydroxypropylcellulose) (HPC)
[11] = dose: 100.0 mg/kg/injection, schedule: Q01DX009 (ip), vehicle: Klucel (hydroxypropylcellulose) (HPC)
[12] = dose: 100.0 mg/kg/injection, schedule: Q04DX003 (ip), vehicle: Klucel (hydroxypropylcellulose) (HPC)
[13] = dose: 100.0 mg/kg/injection, schedule: Q04DX002 (ip), vehicle: saline with Tween-80
[14] = dose: 200.0 mg/kg/injection, schedule: Q04DX002 (ip), vehicle: saline with Tween-80
[15] = dose: 400.0 mg/kg/injection, schedule: Q04DX002 (ip), vehicle: saline with Tween-80
[16] = dose: 200.0 mg/kg/injection, schedule: Q01DX009 (ip), vehicle: Klucel (hydroxypropylcellulose) (HPC)
[17] = dose: 400.0 mg/kg/injection, schedule: Q01DX009 (ip), vehicle: Klucel (hydroxypropylcellulose) (HPC)
[18] = dose: 200.0 mg/kg/injection, schedule: Q04DX003 (ip), vehicle: Klucel (hydroxypropylcellulose) (HPC)
[19] = dose: 400.0 mg/kg/injection, schedule: Q04DX003 (ip), vehicle: Klucel (hydroxypropylcellulose) (HPC)

Measured: T/C

N#CC(C#N)=Cc1cc2c3c(c1)CCCN3CCC2
inactive: dose: 50.0 mg/kg/injection, schedule: Q04DX003 (ip), vehicle: saline with Tween-80 103 % of control | [1] 109 % of control | [2] 92 % of control | [3] 98 % of control

NC(Cc1ncc[nH]1)C(=O)O (stereo not drawn)
inactive: dose: 100.0 mg/kg/injection, schedule: Q04DX002 (ip), vehicle: other 104 % of control | dose: 200.0 mg/kg/injection, schedule: Q04DX002 (ip), vehicle: other 96 % of control | dose: 400.0 mg/kg/injection, schedule: Q04DX002 (ip), vehicle: other 119 % of control

CSc1cc(N)nc2nc[nH]c12
inactive: [4] 105 % of control | [5] 98 % of control | [6] 98 % of control

O=C(CC(O)(C(F)(F)F)C(F)(F)F)C(Cl)C(O)(C(F)(F)F)C(F)(F)F (stereo not drawn)
inactive: dose: 25.0 mg/kg/injection, schedule: Q01DX001 (ip), vehicle: other 104 % of control | dose: 50.0 mg/kg/injection, schedule: Q01DX001 (ip), vehicle: other 86 % of control

Nc1nc(Cl)nc2c1ncn2Cc1ccccc1
inactive: dose: 9.5 mg/kg/injection, schedule: Q01DX001 (ip), vehicle: other 101 % of control | dose: 19.0 mg/kg/injection, schedule: Q01DX001 (ip), vehicle: other 105 % of control | dose: 38.0 mg/kg/injection, schedule: Q01DX001 (ip), vehicle: other 101 % of control | dose: 75.0 mg/kg/injection, schedule: Q01DX001 (ip), vehicle: other 119 % of control

O=C(C(Br)C(Br)c1ccccc1)N1CCOCC1 (stereo not drawn)
inactive: dose: 100.0 mg/kg/injection, schedule: Q01DX009 (ip), vehicle: saline sonified 108 % of control | dose: 100.0 mg/kg/injection, schedule: Q04DX003 (ip), vehicle: saline 109 % of control | dose: 200.0 mg/kg/injection, schedule: Q01DX009 (ip), vehicle: saline sonified 101 % of control | dose: 200.0 mg/kg/injection, schedule: Q04DX003 (ip), vehicle: saline 100 % of control | dose: 400.0 mg/kg/injection, schedule: Q01DX009 (ip), vehicle: saline sonified 95 % of control | dose: 400.0 mg/kg/injection, schedule: Q04DX003 (ip), vehicle: saline 98 % of control

N#CCc1ccc(NN)cc1
inactive: dose: 75.0 mg/kg/injection, schedule: Q01DX009 (ip), vehicle: other 93 % of control | dose: 150.0 mg/kg/injection, schedule: Q01DX009 (ip), vehicle: other 95 % of control

O=C(O)c1ccccc1Cc1ccccc1
inactive: [7] 94 % of control | [8] 98 % of control | [9] 100 % of control

Cc1ccc(S(=O)(=O)OC[C@H]2CC=CC[C@H]2COS(=O)(=O)c2ccc(C)cc2)cc1
inactive: dose: 75.0 mg/kg/injection, schedule: Q01DX009 (ip), vehicle: saline with Tween-80 91 % of control | dose: 100.0 mg/kg/injection, schedule: Q01DX009 (ip), vehicle: DMSO 95 % of control | dose: 100.0 mg/kg/injection, schedule: Q04DX003 (ip), vehicle: DMSO 86 % of control | [1] 88 % of control | dose: 150.0 mg/kg/injection, schedule: Q01DX009 (ip), vehicle: saline with Tween-80 107 % of control | dose: 200.0 mg/kg/injection, schedule: Q01DX009 (ip), vehicle: DMSO 101 % of control | dose: 200.0 mg/kg/injection, schedule: Q04DX003 (ip), vehicle: DMSO 86 % of control | [2] 86 % of control | dose: 300.0 mg/kg/injection, schedule: Q01DX009 (ip), vehicle: saline with Tween-80 101 % of control | dose: 400.0 mg/kg/injection, schedule: Q04DX003 (ip), vehicle: DMSO 88 % of control

CCCOCCOCCOC(C)Oc1ccc(OC)cc1 (stereo not drawn)
inactive: dose: 100.0 mg/kg/injection, schedule: Q04DX002 (ip), vehicle: saline 92 % of control | dose: 200.0 mg/kg/injection, schedule: Q04DX002 (ip), vehicle: saline 101 % of control

CCCCN(CCCC)CCCNC(=O)OCC
inactive: dose: 25.0 mg/kg/injection, schedule: Q01DX009 (ip), vehicle: Klucel (hydroxypropylcellulose) (HPC) 92 % of control | dose: 50.0 mg/kg/injection, schedule: Q01DX009 (ip), vehicle: Klucel (hydroxypropylcellulose) (HPC) 94 % of control | [10] 100 % of control | [11] 106 % of control and 87 % of control | [12] 103 % of control

O=C(/C=C(\S)c1ccccc1)c1ccccc1
inactive: dose: 50.0 mg/kg/injection, schedule: Q01DX001 (ip), vehicle: saline 101 % of control | [4] 104 % of control | [5] 98 % of control | [6] 101 % of control

N#CC1(N(O)C(=O)Nc2ccccc2)CCCCC1
inactive: [4] 93 % of control | [5] 96 % of control | [6] 91 % of control

Cc1ccc(C)c(NC(=O)Oc2ccc(Cl)cc2C)c1
inactive: dose: 100.0 mg/kg/injection, schedule: Q01DX001 (ip), vehicle: saline with Tween-80 100 % of control and 91 % of control | dose: 100.0 mg/kg/injection, schedule: Q01DX009 (ip), vehicle: saline with Tween-80 86 % of control | [13] 92 % of control | dose: 200.0 mg/kg/injection, schedule: Q01DX001 (ip), vehicle: saline with Tween-80 98 % of control | dose: 200.0 mg/kg/injection, schedule: Q01DX009 (ip), vehicle: saline with Tween-80 100 % of control and 89 % of control | [14] 92 % of control | dose: 400.0 mg/kg/injection, schedule: Q01DX001 (ip), vehicle: saline with Tween-80 94 % of control and 100 % of control | dose: 400.0 mg/kg/injection, schedule: Q01DX009 (ip), vehicle: saline with Tween-80 99 % of control and 100 % of control | [15] 89 % of control

Cc1ccc(C(OC(=O)c2ccccc2)c2nccc3ccccc23)cc1 (stereo not drawn)
inactive: [4] 86 % of control | [5] 98 % of control | [6] 98 % of control

Cn1nnc(C(N)=O)n1
inactive: [4] 93 % of control | [5] 98 % of control | [6] 94 % of control

CCCCP(=O)(CC(=O)O)c1ccccc1 (stereo not drawn)
inactive: [13] 97 % of control | [14] 100 % of control | [15] 90 % of control

Cc1cc2ccccc2c2cc3ccccc3cc12
inactive: [11] 104 % of control | dose: 100.0 mg/kg/injection, schedule: Q04DX003 (ip), vehicle: other 111 % of control | [16] 109 % of control | dose: 200.0 mg/kg/injection, schedule: Q04DX003 (ip), vehicle: other 106 % of control | [17] 107 % of control | dose: 400.0 mg/kg/injection, schedule: Q04DX003 (ip), vehicle: other 111 % of control

CCCCCC(=O)NNc1ccccc1
inactive: dose: 50.0 mg/kg/injection, schedule: Q04DX002 (ip), vehicle: Klucel (hydroxypropylcellulose) (HPC) 104 % of control | [7] 104 % of control | [8] 111 % of control | [9] 104 % of control

C=CCC(C(C)=O)C(=O)OCC (stereo not drawn)
inactive: [11] 100 % of control | [12] 93 % of control | [16] 96 % of control | [18] 104 % of control | [17] 96 % of control | [19] 97 % of control

CC(=O)Nc1ccc(C=Nc2ccc3c(c2)Cc2ccccc2-3)cc1
inactive: [11] 91 % of control | [12] 94 % of control | [16] 87 % of control | [18] 90 % of control | [17] 86 % of control | [19] 89 % of control

CN(C)Cc1ccccc1C(=O)C(c1ccccc1)c1ccccc1
inactive: dose: 55.0 mg/kg/injection, schedule: Q01DX Z (ip), vehicle: methylcellulose (MC) 100 % of control | dose: 83.0 mg/kg/injection, schedule: Q01DX Z (ip), vehicle: methylcellulose (MC) 94 % of control

Cc1[nH]c2ccccc2c(=O)c1/C=N/NC(N)=S
inactive: [7] 109 % of control | [8] 91 % of control | [9] 98 % of control

CCOC(=O)C(OCc1ccccc1)(C(=O)N1CCCCC1=O)C(C)C (stereo not drawn)
inactive: dose: 25.0 mg/kg/injection, schedule: Q04DX003 (ip), vehicle: Klucel (hydroxypropylcellulose) (HPC) 119 % of control | [10] 97 % of control | [12] 113 % of control | [18] 88 % of control

C/C(=C/C(=O)O)c1ccc([N+](=O)[O-])cc1
inactive: [1] 100 % of control | [2] 96 % of control | [3] 100 % of control
